For assay [1], the target named is T1, TNF (Homo sapiens, UniProt P01375). Put plainly: Western blot of TNF degradation over time (Example 11, FIG. 24). The class given is cell-based. The note with it: 0.5 μM compound. For orientation: Immunoblotting shows a protein as a band on a membrane.
Assay [2] deals with T1, TNF. In words: Western blot of ASGPR mediated uptake of TNF (Example 12, FIG. 25). The class given is cell-based.
The target of assay [3] is TNFα (Homo sapiens, UniProt P01375). Put plainly: TNF FP assay. As to conditions: TNF 20 nM, 25° C., 2 hours; read-out: TNFα FP IC50 KD. The class given is binding. The protocol: TNF (20 nM) and Compound 36 in 47 mM HEPES pH 6.5, 47 mM NaCl, 0.9 mM EDTA, 0.007% Triton X-100 were incubated at 25° C. for 2 hours. Fluorescence data was read with an Envision and plotted versus Compound 36 concentration and fit to a single-site binding model. This assay was used to calculate the FP data in Table 7.

Assay [4] addresses T2, ASGPR (Homo sapiens, UniProt P07306).
T2 sequence (P07306 1-291): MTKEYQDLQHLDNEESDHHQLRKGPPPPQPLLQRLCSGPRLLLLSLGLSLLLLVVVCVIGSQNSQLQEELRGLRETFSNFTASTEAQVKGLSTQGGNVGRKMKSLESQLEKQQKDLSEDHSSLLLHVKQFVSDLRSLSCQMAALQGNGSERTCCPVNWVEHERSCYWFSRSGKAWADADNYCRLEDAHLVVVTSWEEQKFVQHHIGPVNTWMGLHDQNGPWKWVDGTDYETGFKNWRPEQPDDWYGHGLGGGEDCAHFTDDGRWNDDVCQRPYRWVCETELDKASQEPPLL
In words: Affinity to ASGPR by surface plasmon resonance (SPR). (Surface plasmon resonance follows binding to a sensor surface in real time, without labels.)

Assay [5] concerns IgG-AF488. In words: Western blot of IgG-AF488 degradation (Example 5, FIG. 10). The class given is cell-based.
For assay [6], the system named is DNP-IgG. Put plainly: Colocalization imaging of DNP-IgG uptake (Example 4, FIG. 11). The class given is cell-based.
Assay [7] addresses T3, ASGPR receptor on the cell surface (HepG2 cells) (Homo sapiens, UniProt P07306).
T3 construct: host or cells: HepG2
T3 sequence (P07306 1-291): T2 sequence (P07306 1-291)
T3 sequence (P07307 1-311 partner): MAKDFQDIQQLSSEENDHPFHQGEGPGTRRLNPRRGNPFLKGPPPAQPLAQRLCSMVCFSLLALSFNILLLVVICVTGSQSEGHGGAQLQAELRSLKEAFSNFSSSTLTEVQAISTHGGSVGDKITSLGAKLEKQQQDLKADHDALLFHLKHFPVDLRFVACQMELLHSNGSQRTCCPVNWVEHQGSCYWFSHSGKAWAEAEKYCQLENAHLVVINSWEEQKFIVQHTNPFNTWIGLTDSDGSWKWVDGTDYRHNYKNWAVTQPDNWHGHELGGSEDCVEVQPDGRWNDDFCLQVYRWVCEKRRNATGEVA
In words: Ternary complex formation assay (flow cytometry, HepG2). The class given is cell-based. As to conditions: HepG2 cells. An outline of the steps:
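HepG2 cells (1×10^5/well) incubated 1 h at 4 °C with 100 nM AF488-labeled anti-human IgG plus serial IgG-based degrader, or 100 nM AF488 rabbit anti-DNP plus serial DNP-based degrader. After washing, cell-associated AF488 MFI read by flow cytometry; peak MFI marks optimal degrader concentration for ternary complex.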
A general note: Flow cytometry measures light scatter and fluorescence of single cells or particles in a stream.

The test system of assay [8] is HepG2 cells. In words: Cellular uptake assay of AF488-labeled antibody (HepG2). The class given is cell-based. The procedure, abridged: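 HepG2 cells given 100 nM AF488-labeled human IgG or DNP antibody plus serial dilutions of matching degrader (0.1% DMSO final), 6 h at 37° C. Methanol-fixed, DAPI-stained and imaged by high-content analysis. Value is the fraction of AF488-positive cells over total DAPI-counted cells.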

The test system of assay [9] is HepG2 cells. In words: Cellular co-localization study (LAMP2 immunofluorescence). The class given is cell-based. As to conditions: 100 nM compound, 100 nM AF488-labeled DNP antibodies, 8 hours, FIG. 4. The protocol:
To confirm that DNP-IgG was trafficked to the lysosome following uptake by the HepG2 cells, cells were stained with the lysosomal marker LAMP2, and the subcellular location of AF488-labeled DNP-IgG was visualized by immunofluorescence microscopy.
HepG2 cells were plated in DMEM supplemented with 10% FBS incubated for approximately 18 hours at 37° C./5% CO2. AF488-labeled DNP antibodies (100 nM) and either DMSO or 100 nM of Compound 28 were added to the cells and incubated at 37° C. for an additional 8 hours. Cells were fixed with 100% methanol for 20 minutes at −20° C. followed by incubation with blocking buffer (1×PBS containing 5% normal goat serum and 0.1% Triton X-100) for 1 hour at room temperature. Cells were stained with anti-LAMP2 (Abcam) at 4° C. for about 18 hours followed by treatment with goat anti-mouse IgG-AF647 for 2 hours at room temperature. Nuclei were stained with DAPI. Pictures were taken on a Leica fluorescence microscope at 40× magnification.

The subject of assay [10] is HepG2 cells. In words: Cellular degradation assay of anti-DNP-AF488 antibody. The note with it: 0.2 μM compound, 1 μM anti-DNP-AF488, 16 hours uptake then wash, FIG. 3. The class given is cell-based. The protocol: To observe degradation of IgG in cells, a mixture of fluorescently labeled DNP antibody and compound are added to HepG2 cells and cellular uptake occurs over 16 hours. Cells are then washed to remove extracellular antibody and compound and samples are taken at various time points after uptake to detect levels of intact and/or proteolytic fragments of the antibody heavy and light chains over time as a kinetic measurement of antibody degradation.
HepG2 cells were seeded in DMEM supplemented with 10% FBS into a 12-well plate at a final amount of 20,000 cells per well. After about 18 hours incubation, 1 μM anti-DNP-AF488 antibody and/or 0.2 μM Compound 28 was added to the cells and incubated for 16 hours. The next day, cells were washed once with cell culture media and replaced with cell culture medium lacking anti-DNP-AF488 antibody or Compound 28 and incubated for 0, 1, 2, 4, and 8 hours, respectively. Cells were washed and lysed in RIPA buffer with protease inhibitors. Cell lysates were separated by SDS-PAGE and the fluorescent anti-DNP-AF488 antibody degradation products were visualized by the iBright 1500 gel reader (ThermoFisher). Intracellular heavy and light chains of DNP-IgG are observed after 16 hours of uptake into HepG2 cells. […]

In assay [11] the target is IgG. In words: Affinity to IgG by surface plasmon resonance (SPR). The class given is binding. The note with it: SPR; read-out: IgG KD. The protocol: Immobilization levels ranging from 1000-1300 resonance units (RU) are obtained. The running buffer is 10 mM HEPES, pH 7.4, 400 mM NaCl, 0.005% P20, […].

Here are results for 3 compounds from patent US12091402B2 (Avilar Therapeutics, Inc., priority 2021, dated 2024).

Like-named read-outs stand apart in the source and are kept apart here.

The term IC50 denotes the midpoint of a concentration-inhibition curve. Broadly, the Kd is the constant that tells how readily two partners part at equilibrium. One may read the EC50 as the concentration needed to bring the measured effect to its halfway point.

T1 sequence (P01375 77-233 limits assumed): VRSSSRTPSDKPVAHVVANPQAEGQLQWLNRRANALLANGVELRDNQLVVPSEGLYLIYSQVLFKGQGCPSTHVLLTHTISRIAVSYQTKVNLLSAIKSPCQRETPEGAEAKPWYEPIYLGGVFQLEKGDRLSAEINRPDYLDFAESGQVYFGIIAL
Chain of TNFα (P01375 77-233 limits assumed): as above

Consider `O=C(CCOCC(COCCC(=O)NCCOCCOCCOCCOC[C@H]1OC[C@H](Nc2nccc(C(F)(F)F)n2)[C@@H](O)[C@H]1O)NC(=O)COCCOCCOCC(=O)N1CCN(Cc2ccc(-c3c[nH]c4ccncc34)c(OCCc3ccc(-c4cccc5ccncc45)cc3)c2)CC1)NCCOCCOCCOCCOC[C@H]1OC[C@H](Nc2nccc(C(F)(F)F)n2)[C@@H](O)[C@H]1O` [Compound 36, 3,3′-((2-(2-(2-(2-(2-(4-(3-(4-(isoquinolin-8-yl)phenethoxy)-4-(1H-pyrrolo[3,2-c]pyridin-3-yl)benzyl)piperazin-1-yl)-2-oxoethoxy)ethoxy)ethoxy)acetamido)propane-1,3-diyl)bis(oxy))bis(N-(1-((2R,3R,4R,5S)-3,4-dihydroxy-5-((4-(trifluoromethyl)pyrimidin-2-yl)amino)tetrahydro-2H-pyran-2-yl)-2,5,8,11-tetraoxatridecan-13-yl)propanamide)], for which the “degradation of TNF over time (western blot)” value in assay [1] is “degradation of TNF”. Moreover, the “ASGPR mediated uptake of TNF (western blot)” value in assay [2] is “ASGPR mediated uptake of TNF”. In addition, the IC50 in assay [3] was less than 500 nM. For the same compound, the Kd in [4] was less than 1 nM. The “ASGPR kd” value in assay [4] (Table 7) is less than 0.01 s⁻¹.
With `O=C(CCOCC(COCCC(=O)NCCOCCOCCOCCOC[C@H]1OC[C@@H](Nc2nc(Cl)ns2)[C@@H](O)[C@H]1O)NC(=O)COCCOCCOCCNc1ccc([N+](=O)[O-])cc1[N+](=O)[O-])NCCOCCOCCOCCOC[C@H]1OC[C@@H](Nc2nc(Cl)ns2)[C@@H](O)[C@H]1O` [Compound 28, 3,3′-((2-(2-(2-(2-(2-((2,4-dinitrophenyl)amino)ethoxy)ethoxy)ethoxy)acetamido)propane-1,3-diyl)bis(oxy))bis(N-(1-((2R,3R,4R,5R)-5-((3-chloro-1,2,4-thiadiazol-5-yl)amino)-3,4-dihydroxytetrahydro-2H-pyran-2-yl)-2,5,8,11-tetraoxatridecan-13-yl)propanamide)], the “degradation of IgG-AF488 (western blot)” value in assay [5] is given as “degradation of IgG-AF488”. The “uptake of DNP-IgG (colocalization image)” value in assay [6] is “uptake of DNP-IgG”. In addition, the EC50 in assay [7] (EC50, half-maximal concentration with respect to the peak MFI (ternary complex formation), AF488-labeled DNP antibody, FIG. 1) is 4.7 nM; in assay [7] (Ternary Complex EC50 (nM), 100 nM AF488-labeled antibody, 1 hour at 4° C., class symbols), less than 100 nM; in assay [8] (Homo sapiens, HepG2, 6 h, read-out: Uptake Assay EC50 (nM)) it was less than 100 nM. Moreover, the “EC50, half-maximal concentration with respect to the peak ratio of antibody-positive cells (cellular uptake)” value in assay [8] (DNP-antibody, HepG2 cells, FIG. 2) was found to be 3.8 nM. Further, the “Uptake of DNP-IgG and co-localization with lysosomal marker LAMP2” value in assay [9] is “DNP-IgG was taken up into the cells and co-localized with the lysosomal marker LAMP2”. Also, in [10], the “Loss of intact heavy chain of DNP-IgG observed after” value amounted to 1 h. For the same compound, the “Loss of intact light chain of DNP-IgG observed after” value in assay [10] was determined as 8 h. Moreover, in [4], the Kd is less than 100 nM.
In the case of `CC(C)C[C@@H]1NC(=O)[C@H](Cc2cnc[nH]2)NC(=O)[C@H](Cc2c[nH]c3ccccc23)NC(=O)[C@H](C)NC(=O)[C@@H]2CSSC[C@H](NC(=O)[C@H](Cc3c[nH]c4ccccc34)NC(=O)[C@H](C(C)C)NC(=O)[C@H](CC(C)C)NC(=O)[C@H](CCC(=O)O)NC(=O)CNC1=O)C(=O)N[C@@H]([C@@H](C)O)C(=O)N1CCC[C@@H]1C(=O)N1C[C@@H](NC(=O)c3ccc(C(=O)NC[C@H]4OC[C@H](Nc5cncc(C(F)(F)F)n5)[C@@H](O)[C@H]4O)cc3)C[C@H]1C(=O)N[C@@H](CC(=O)O)C(=O)N2` [Compound 67], the Kd in assay [11] and in [4] was less than 100 nM throughout. Moreover, the EC50 in assay [7] (ternary complex formation, read-out: TCF EC50) was greater than 1000 nM; in [8] (HepG2 cells, read-out: Uptake EC50), greater than 1000 nM.
